Data as given in patent US20060167098A1, “Method for the treatment of diseases linked to an accumulation of triglycerides and cholesterol” (Institut National De La Sante ET De LA Recherche Medicale …, priority 2003, published 2006).

Columns and labels:
[1] = Liver histology, liver triglycerides and ALT in ob/ob mice treated for 4 months, not fasted; assay type: in vivo; conditions: for plasma alanine aminotransferase (ALT): after 4 months
Procedure: Total lipids and triglycerides in the liver of animals were assessed according to a procedure partially reported by (Letteron P., Fromenty B., Terris B., Degott C., Pessayre D., 1996, J. Hepatol. 24 : 200-208). Briefly, after killing of the animals, livers were removed and homogenized in sterile water. Hepatic lipids were thus extracted by a mixture of chloroform and methanol (2/1; v/v). After removal of the aqueous phase, the organic phase (chloroform containing the lipids) was evaporated and the amount of lipids was determined by gravimetry. Lipids were subsequently resuspended in isopropanol (final concentration, ca. 10 mg/mL). After removal of the phopholipids by using aluminum hydroxide hydrate, triglycerides were determined colorimetrically by using periodate and the Nash's reagent (containing acetylacetone, ammonium acetate and isopropanol). The reaction generates diacetyldihydrolutidine which is assayed by spectrophotometry (λ=410 nm).
Plasma HDL-cholesterol and alanine aminotransferase (ALT) were measured on an automatic analyser (Olympus AU400®) with commercial kits (Olympus Diagnostica GmbH, references OSR6187 and OSR6107, respectively).
Finally, liver histology was performed according to regular procedure. Steatosis and fibrosis were assessed thanks to the Oil red O and Masson's trichrome stains, respectively, whereas necrosis and inflammation were determined thanks to the HPS (Hematoxylin-Phloxin-Saffron) stain, or the HE (Hematoxylin-Eosin) stain. In one experiment, perisinusoidal fibrosis was assessed with the Sirius Red stain.
In a second series of investigations, liver histology was studied in ob/ob mice treated for 4 months with β-aminoisobutyric acid, administered either at the usual dose (100 mg/kg/day) or at a higher dose (500 mg/kg/day). In this experiment, liver examination was performed in mice not submitted to a fasting period before sacrifice. The number of investigated animals were 6, 7 and 8, respectively in the control group and in the groups treated with 100 and 500 mg/kg/day of β-aminoisobutyric acid.

[2] = Plasma lipids in Swiss mice fed with a western diet, 6 weeks, 48-hour fast; assay type: in vivo; conditions: 100 mg/kg/day
Procedure: (§1) Plasma lipids (triglycerides, total cholesterol, phospholipids) were measured on an automatic analyser (Hitachi 717®). The commercial kits used to assess triglycerides, total cholesterol and phospholipids on this analyser were all from bioMérieux (references 61238, 61219 and 61491, respectively). Plasma non esterified fatty acids (NEFA) were assessed by using a commercial kit (Wako, reference 994-75409). Hepatic and plasma lipids were performed at the end of six weeks of treatment in animals that have been fasted for 48 hours. Triglycerides and HDL-cholesterol were also assessed after 2 months (in the fed state) or after 4 months of treatment (after an overnight fast).
Plasma lipids were assessed in mice fed with the western diet (WD) and receiving or not of 100 mg/kg/day of β-aminoisobutyric acid (BAIBA) in the drinking water (8 mice in each group). For comparison, the experiment also included a group of mice (n=8) fed with a standard diet (SD). These animals were those used for the determination of body fat by DEXA and liver lipids (see above, paragraph I-c and II-a, respectively). After the last DEXA measurement (after 6 weeks of treatment), mice were allowed to recover from the anaesthesia for ca. 2 days and were then submitted to a 48-hour period of fast. At the end of this fasting period, a sample of blood was collected (from the retroorbital sinus) […] and plasma triglycerides, phospholipids, total cholesterol and non-esterified fatty acids (NEFA) were subsequently determined. After 6 weeks, the western diet was responsible for an increase of all plasma lipids, but the most affected lipids were triglycerides.

[3] = Plasma lipids in ob/ob mice, 6 weeks, 48-hour fast; assay type: in vivo
Procedure: as §1
Plasma lipids were assessed in ob/ob mice fed with a standard diet and receiving or not β-aminoisobutyric acid (BAIBA) in the drinking water during 6 weeks. These animals (7 controls and 10 treated with BAIBA) were those used for the determination of hepatic lipids (see above, paragraph II-b). At the end of the 6 weeks of treatment, mice were submitted to a 48-hour period of fast. Samples of blood were then collected (from the retroorbital sinus) for the assessment of plasma triglycerides, phospholipids and total cholesterol and mice were subsequently killed for assessment of liver triglycerides (see above). In this experiment, BAIBA decreased by 5, 23 and 19%, respectively plasma triglycerides, phospholipids and total cholesterol. The results are submitted in FIG. 7.

[4] = tested on: mitochondrial beta-oxidation of fatty acids in liver; assay: Mitochondrial beta-oxidation of fatty acids in liver

## CC(CN)C(=O)O (racemic) [BAIBA, D,L-β-Aminoisobutyric acid]
[1]; 100 mg/kg/day, 4 months
  liver triglycerides: 721±16 mg/g of lipids
  mice with inflammation: 43%
  mice with necrosis: 43%
  mice with perisinusoidal fibrosis: 29%
  mice with portal or perivenular fibrosis: 29%
[1]; 100 mg/kg/day
  plasma alanine aminotransferase (ALT): 290±61 U/L
[1]; 500 mg/kg/day, 4 months
  liver triglycerides: 707±29 mg/g of lipids
[1]; 500 mg/kg/day
  plasma alanine aminotransferase (ALT): 258±27 U/L
[1]; 100 and 500 mg/kg/day, 4 months, not fasted
  extent of steatosis vs control: about the same extent
[2]
  decrease of plasma NEFA: 16%
  decrease of total cholesterol: 4%
  plasma NEFA: 0.88 ± 0.06 mmol/L
  plasma total cholesterol: 6.71 ± 0.27 mmol/L
  plasma triglycerides: 1.54 ± 0.13 mmol/L
[2]; not significant
  reduction of plasma triglycerides: 22%
[3]
  decrease of plasma phospholipids: 23%
  decrease of plasma total cholesterol: 19%
  decrease of plasma triglycerides: 5%
  plasma triglycerides: 1.32 ± 0.14 mmol/L
[3]; p<0.01
  plasma phospholipids: 4.07 ± 0.26 mmol/L
[3]; p<0.05
  plasma total cholesterol: 4.98 ± 0.34 mmol/L
[4]
  mitochondrial beta-oxidation of fatty acids in liver: increases
